Measured values reported in US6894079B1, “Method for reducing free-radical induced injury” (priority 1998, dated 2005).

Experiments:
[1] = AAPH peroxyl-radical oxidation of linoleic acid/SDS micelles, malondialdehyde formation; conditions: 2, 4, 20 and 50 mM AAPH; 5 ml emulsion plus 5 ml perflubron, room temperature (FIGS. 4A-D)
Procedure: This embodiment illustrates the effect of perfluorocarbon on fatty acid oxidation in a non-biological system (fatty acid micelles). Linoleic acid micelles were prepared as follows: Linoleic acid (3 mM) was emulsified into phosphate buffered saline (PBS) using the detergent sodium dodecyl sulfate (SDS, 250 μM). Linoleic acid/SDS micelles in PBS were formed by agitation and sonication of the resulting emulsion. The emulsion (5 ml) was exposed to perfluorocarbon by the addition of perflubron (PFOB, 5 ml, available commercially) to the system. Emulsions not exposed to perflubron served as controls. The emulsion/PFOB system (PFOB exposed micelles) and the non-exposed micelles (control) were agitated (xyz axial shaker) at room temperature. […] The degree of oxidative injury to the linoleic acid/SDS micelles was assessed by measuring malondialdehyde concentrations in aliquots taken from the emulsion phase at different time intervals. […] Malondialdehyde was measured using the method of Esterbauer and Cheeseman (Meth. Enzymol. 1990; 186:407-421). […] Absorbance changes were measured using a spectrophotometer (Beckman DU 650, Beckman Instruments) at 586 nm, against standard curves of 1,1,3,3-tetramethoxypropane at the end of the incubation period. […]

[2] = system: Rat pulmonary artery endothelial cells (RPAECs); test: H2O2 oxidative stress to endothelial cell monolayers, DCFDA fluorescence (confocal imaging); assay type: cell-based
Procedure: Rat pulmonary artery endothelial cells (RPAECs) were grown to confluence on optical grade culture dishes using standard technique. Cells were grown in Dulbecco's Modified Eagles Medium (high glucose) containing […], 0.8 M NaOH 10% serum (calf serum). Cells were incubated at 37° C. in 5% CO2, 95% relative humidity.
An oxidative stress indicator, dichlorofluorescein diacetate (DCFDA), was used to indicate the extent of injury to cells. DCFDA is a colorless substance that permeates through the cell membrane. Fresh DCFDA (5 uM) was prepared by solubilizing 2.4 mg DCFDA in 300 ul DMSO, then diluting the solution in […] Phosphate buffered saline (PBS), pH 7.4. […] Upon excitation by contact with free radicals, the dye DCFDA becomes fluorescent and the intensity of fluorescence is directly proportional to the degree of oxidative stress suffered by the cells. […]
Oxidative stress was initiated by the addition of the buffer containing 10 mM H2O2 in PBS to the cell monolayers. Oxidative stress to cells was measured by sequential imaging with a confocal laser microscope obtained at baseline and every 10 seconds for 120 seconds. The excitation filter was wet at 488 nm and the images were read at 515 nm. […]
Relative fluorescence of cell monolayers exposed to perflubron (open circles) and standard buffer (closed circles) are shown in FIG. 1. […] Data are expressed as mean+standard error of the mean. […]

FC(F)(F)C(F)(F)C(F)(F)C(F)(F)C(F)(F)C(F)(F)C(F)(F)C(F)(F)Br [PFOB, perfluorooctyl bromide]
oxidative damage to fatty acid micelles (malondialdehyde concentration) [1]: attenuates oxidative damage to fatty acid micelles | oxidative injury to cell monolayers ([2]; 10 mM H2O2 in PBS, imaging every 10 seconds for 120 seconds, perflubron removed by aspiration or evaporation (FIGS. 1, 2 and 3)): attenuates oxidative injury to cell monolayers | DCFDA fluorescence (indicator of free radicals) in cell cultures ([2]; after 120 seconds of oxidative stress with 10 mM H2O2, cells pre-exposed 1 minute to 1 ml PFOB, then removed (C120, FIG. 2 and 3)): lack of fluorescence
